Test system: 677734-321-R-J1-PDC complex spheroid viability
Assay: Anticancer human tumor 677734-321-R-J1-PDC patient-derived soft tissue sarcoma cell line growth inhibition [POLQ]
Settings: for IC50: curve of first compound; for viability, T/C: stronger effect = lower value; active = viability on the fitted dose curve at most 10% of control; inactive = the rest
Procedure, shortened: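 Three-cell-type spheroids modelling solid tumor plus stroma served as the readout system; POL inhibitors were tested individually and in combination, concentration ranges set by clinical Cmax where known.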

[1] = second compound 0.0316 µM, first compound 0.0316 µM
[2] = second compound 0.0316 µM, first compound 0.1 µM
[3] = second compound 0.0316 µM, first compound 0.316 µM
[4] = second compound 0.0316 µM, first compound 1 µM
[5] = second compound 0.0316 µM, first compound 3.16 µM
[6] = second compound 0.0316 µM, first compound 10 µM
[7] = second compound 0.1 µM, first compound 0.0316 µM
[8] = second compound 0.1 µM, first compound 0.1 µM
[9] = second compound 0.1 µM, first compound 0.316 µM
[10] = second compound 0.1 µM, first compound 1 µM
[11] = second compound 0.1 µM, first compound 3.16 µM
[12] = second compound 0.1 µM, first compound 10 µM
[13] = second compound 0.316 µM, first compound 0.0316 µM
[14] = second compound 0.316 µM, first compound 0.1 µM
[15] = second compound 0.316 µM, first compound 0.316 µM
[16] = second compound 0.316 µM, first compound 1 µM
[17] = second compound 0.316 µM, first compound 3.16 µM
[18] = second compound 0.316 µM, first compound 10 µM
[19] = second compound 1 µM, first compound 0.0316 µM
[20] = second compound 1 µM, first compound 0.1 µM
[21] = second compound 1 µM, first compound 0.316 µM
[22] = second compound 1 µM, first compound 1 µM
[23] = second compound 1 µM, first compound 3.16 µM
[24] = second compound 1 µM, first compound 10 µM
[25] = second compound 3.16 µM, first compound 0.0316 µM
[26] = second compound 3.16 µM, first compound 0.1 µM
[27] = second compound 3.16 µM, first compound 0.316 µM
[28] = second compound 3.16 µM, first compound 1 µM
[29] = second compound 3.16 µM, first compound 3.16 µM
[30] = second compound 3.16 µM, first compound 10 µM
[31] = second compound 10 µM, first compound 0.0316 µM
[32] = second compound 10 µM, first compound 0.1 µM
[33] = second compound 10 µM, first compound 0.316 µM
[34] = second compound 10 µM, first compound 1 µM
[35] = second compound 10 µM, first compound 3.16 µM
[36] = second compound 10 µM, first compound 10 µM
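Note: spheroids exposed to compounds for one week.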
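Throughout, for viability, T/C: 100% = vehicle DMSO treated spheroids.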

COc1ccc([C@@H](O)c2cc(-c3ncnc4cc(N5CCOCC5)ccc34)c(F)cc2Cl)nn1 + Nc1ccc(C#CCN(C(=O)Cc2ncc(C(F)(F)F)cc2C(F)(F)F)c2ccc(F)cc2)nn1
> 10 µM: IC50 (second compound 10 µM)
inactive: viability, T/C [1] 89.5% | viability, T/C [2] 96.2% | viability, T/C [3] 76.8% | viability, T/C [4] 88.4% | viability, T/C [5] 72.5% | viability, T/C [6] 41.7% | viability, T/C [7] 90.2% | viability, T/C [8] 106% | viability, T/C [9] 96.2% | viability, T/C [10] 90.8% | viability, T/C [11] 67.4% | viability, T/C [12] 47.8% | viability, T/C [13] 105% | viability, T/C [14] 93.1% | viability, T/C [15] 80.9% | viability, T/C [16] 95.4% | viability, T/C [17] 71.5% | viability, T/C [18] 47.6% | viability, T/C [19] 108% | viability, T/C [20] 93.9% | viability, T/C [21] 94% | viability, T/C [22] 90.4% | viability, T/C [23] 73.8% | viability, T/C [24] 43.2% | viability, T/C [25] 103% | viability, T/C [26] 92.6% | viability, T/C [27] 82.8% | viability, T/C [28] 75.5% | viability, T/C [29] 61.1% | viability, T/C [30] 43.4% | viability, T/C [31] 102% | viability, T/C [32] 99.7% | viability, T/C [33] 77.7% | viability, T/C [34] 73.7% | viability, T/C [35] 72.9% | viability, T/C [36] 45.8%
9.17 µM: IC50 (second compound 0.316 µM)
6.66 µM: IC50 (second compound 3.16 µM)
7.89 µM: IC50 (second compound 1 µM)
8.81 µM: IC50 (second compound 0.1 µM)
7.37 µM: IC50 (second compound 0.0316 µM)

O=C(Nc1ccc(O)c(NS(=O)(=O)c2ccc(F)cc2)c1)c1ccc(-c2ccccc2)cc1 + Nc1ccc(C#CCN(C(=O)Cc2ncc(C(F)(F)F)cc2C(F)(F)F)c2ccc(F)cc2)nn1
inactive: viability, T/C [1] 106% | viability, T/C [2] 115% | viability, T/C [3] 97% | viability, T/C [4] 106% | viability, T/C [5] 68.7% | viability, T/C [6] 21.3% | viability, T/C [7] 106% | viability, T/C [8] 102% | viability, T/C [9] 94% | viability, T/C [10] 102% | viability, T/C [11] 69.4% | viability, T/C [12] 17.1% | viability, T/C [13] 104% | viability, T/C [14] 113% | viability, T/C [15] 110% | viability, T/C [16] 103% | viability, T/C [17] 53.5% | viability, T/C [18] 22.1% | viability, T/C [19] 114% | viability, T/C [20] 109% | viability, T/C [21] 104% | viability, T/C [22] 105% | viability, T/C [23] 58.6% | viability, T/C [24] 19.4% | viability, T/C [25] 119% | viability, T/C [26] 114% | viability, T/C [27] 101% | viability, T/C [28] 111% | viability, T/C [29] 58.2% | viability, T/C [30] 19.9% | viability, T/C [31] 109% | viability, T/C [32] 115% | viability, T/C [33] 109% | viability, T/C [34] 103% | viability, T/C [35] 56.5% | viability, T/C [36] 16.5%
3.82 µM: IC50 (second compound 10 µM)
3.59 µM: IC50 (second compound 0.316 µM)
4.84 µM: IC50 (second compound 0.1 µM)
4.08 µM: IC50 (second compound 1 µM)
4.98 µM: IC50 (second compound 0.0316 µM)
4.07 µM: IC50 (second compound 3.16 µM)
